# Results from US20240327382A1 (ALMAC DISCOVERY LIMITED, priority 2021, published 2024).
# Molecular target: T1, Full-length USP19 (Homo sapiens, UniProt O94966)
# T1 construct: Full-length USP19 was purchased from Boston Biochem (E-576); purchased Boston Biochem E-576
# T1 sequence (O94966 1-1318): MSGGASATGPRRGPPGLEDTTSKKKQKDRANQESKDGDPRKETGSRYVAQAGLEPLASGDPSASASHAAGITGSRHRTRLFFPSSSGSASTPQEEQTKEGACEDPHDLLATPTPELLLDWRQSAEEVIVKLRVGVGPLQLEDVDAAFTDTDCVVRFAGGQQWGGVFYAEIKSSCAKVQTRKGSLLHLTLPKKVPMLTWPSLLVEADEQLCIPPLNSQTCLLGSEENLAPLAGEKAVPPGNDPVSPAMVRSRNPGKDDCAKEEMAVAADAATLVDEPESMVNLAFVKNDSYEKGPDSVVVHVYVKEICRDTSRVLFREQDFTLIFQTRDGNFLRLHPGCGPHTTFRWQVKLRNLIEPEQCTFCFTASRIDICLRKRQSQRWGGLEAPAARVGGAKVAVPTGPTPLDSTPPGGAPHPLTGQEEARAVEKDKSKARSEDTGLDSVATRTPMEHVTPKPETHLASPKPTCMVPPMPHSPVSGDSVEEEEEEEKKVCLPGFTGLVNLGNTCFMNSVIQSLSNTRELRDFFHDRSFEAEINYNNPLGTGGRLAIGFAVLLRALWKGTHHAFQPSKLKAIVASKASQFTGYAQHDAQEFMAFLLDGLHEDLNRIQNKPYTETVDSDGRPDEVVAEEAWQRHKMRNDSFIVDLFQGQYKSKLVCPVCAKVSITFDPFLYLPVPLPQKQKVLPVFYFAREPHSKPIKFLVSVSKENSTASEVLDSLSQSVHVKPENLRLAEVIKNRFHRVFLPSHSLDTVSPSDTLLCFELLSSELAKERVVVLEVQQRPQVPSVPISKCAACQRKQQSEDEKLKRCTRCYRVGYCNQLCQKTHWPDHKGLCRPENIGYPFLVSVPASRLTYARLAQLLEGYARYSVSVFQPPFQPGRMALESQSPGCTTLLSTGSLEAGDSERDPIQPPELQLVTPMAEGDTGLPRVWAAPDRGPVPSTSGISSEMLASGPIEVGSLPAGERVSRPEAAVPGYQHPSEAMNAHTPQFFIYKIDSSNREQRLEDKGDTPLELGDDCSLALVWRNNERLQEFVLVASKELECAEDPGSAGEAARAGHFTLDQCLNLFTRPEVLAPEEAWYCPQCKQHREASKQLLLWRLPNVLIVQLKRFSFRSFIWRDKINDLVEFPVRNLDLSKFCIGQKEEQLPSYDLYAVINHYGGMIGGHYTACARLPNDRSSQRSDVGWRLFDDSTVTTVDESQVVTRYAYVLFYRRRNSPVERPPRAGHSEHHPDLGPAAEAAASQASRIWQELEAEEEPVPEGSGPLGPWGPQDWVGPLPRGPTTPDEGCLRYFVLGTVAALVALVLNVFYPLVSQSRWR
# Assay: USP19 fluorescence polarisation (FP) assay, Ubiquitin-Lys-TAMRA substrate
# Assay type: biochemical
# Conditions: average of at least two duplicate experiments
# Description: USP19 activity was determined in a fluorescence polarisation (FP) homogeneous assay using the isopeptide Ubiquitin-Lys-TAMRA substrate (either AUB-101, Almac Sciences Scotland Limited, or U-558, Boston Biochem, both of which gave identical results). Full-length USP19 was purchased from Boston Biochem (E-576). Unless otherwise stated, all other reagents were purchased from Sigma. Enzymatic reactions were conducted in black flat bottom polystyrene 384-well plates (Nunc) and 30 μL total volume. USP19 (2.5 nM, 10 μL) was incubated in assay buffer (50 mM HEPES (pH 7.4), 150 mM NaCl, 5 mM DTT, 0.05% BSA (w/v), 0.05% CHAPS) in the presence or absence of inhibitor (10 μL). Inhibitors were stored as 10 mM DMSO stocks in an inert environment (low humidity, dark, low oxygen, rt) using the StoragePod® system (Roylan Developments) and serial dilutions were prepared in buffer just prior to the assay (from 200 μM to 2 μM, 8-18 data point curve). Following incubation at RT for 30 min, the enzymatic reactions were initiated by dispensing the Ub substrate (500 nM, 10 μL). FP was measured every 15 min over a period of 90 min (within the linear range of the assay) using a Synergy 4 plate reader (BioTek) exciting at 530 nm and measuring the amount of parallel and perpendicular light at 575 nm. The FP signal was subsequently normalised to the no compound control. Data were plotted and fitted, and the concentrations resulting in 50% inhibition (IC50) were calculated using the non-linear regression curve fitting model using GraphPad (Prism). IC50 values for the inhibitors of the invention are compiled in Tables 1 and 3 and represent the average of at least two duplicate experiments.
row,IC50 [nM],Structure (SMILES)
1,10 to 100,"O=C(N1CCC(Cn2ccc(-c3ccccc3)cc2=O)CC1)N1CCNC[C@H]1c1cc(F)ccc1F [Example 22, (R)-1-((1-(2-(2,5-Difluorophenyl)piperazine-1-carbonyl)piperidin-4-yl)methyl)-4-phenylpyridin-2(1H)-one]"
2,< 10,"N[C@@H]1CCN(C(=O)N2CC[C@@H](Cn3ccc(-c4ccccc4)cc3=O)C3(CCCC3)C2)[C@H](c2ccccc2)C1 [Example 23, 1-(((R)-7-((2S,4R)-4-Amino-2-phenylpiperidine-1-carbonyl)-7-azaspiro[4.5]decan-10-yl)methyl)-4-phenylpyridin-2(1H)-one]"
3,1000 to 20000,"N[C@@H]1CCN(C(=O)N2CC[C@H](Cn3ccc(-c4ccccc4)cc3=O)C3(CCCC3)C2)[C@H](c2ccccc2)C1 [Example 24, 1-(((S)-7-((2S,4R)-4-Amino-2-phenylpiperidine-1-carbonyl)-7-azaspiro[4.5]decan-10-yl)methyl)-4-phenylpyridin-2(1H)-one]"
4,< 10,N[C@@H]1CCN(C(=O)N2CC[C@@H](Cn3cnc(-c4ccccc4)cc3=O)C3(CCCC3)C2)[C@H](c2ccccc2)C1 [Example 25]
5,100 to 1000,N[C@@H]1CCN(C(=O)N2CC[C@H](Cn3cnc(-c4ccccc4)cc3=O)C3(CCCC3)C2)[C@H](c2ccccc2)C1 [Example 26]
6,< 10,"N[C@@H]1CCN(C(=O)N2CCC(Cn3cnc4ccc(F)cc4c3=O)C3(CCCC3)C2)[C@H](c2ccccc2)C1 (stereo partly drawn) [Example 27, 3-((7-((2S,4R)-4-Amino-2-phenylpiperidine-1-carbonyl)-7-azaspiro[4.5]decan-10-yl)methyl)-6-fluoroquinazolin-4(3H)-one]"
7,10 to 100,"N[C@@H]1CCN(C(=O)N2CCC(Cn3cnc(C(F)F)cc3=O)C3(CCCC3)C2)[C@H](c2ccccc2)C1 (stereo partly drawn) [Example 28, 3-((7-((2S,4R)-4-Amino-2-phenylpiperidine-1-carbonyl)-7-azaspiro[4.5]decan-10-yl)methyl)-6-(difluoromethyl) pyrimidin-4(3H)-one]"
8,< 10,"N[C@@H]1CCN(C(=O)N2CCC(Cn3cnc(C4CC4)cc3=O)C3(CCCC3)C2)[C@H](c2ccccc2)C1 (stereo partly drawn) [Example 29, 3-((7-((2S,4R)-4-Amino-2-phenylpiperidine-1-carbonyl)-7-azaspiro[4.5]decan-10-yl)methyl)-6-cyclopropyl-pyrimidin-4(3H)-one]"
9,100 to 1000,"N[C@@H]1CCN(C(=O)N2CCC(Cn3cnccc3=O)C3(CCCC3)C2)[C@H](c2ccccc2)C1 (stereo partly drawn) [Example 30, 3-((7-((2S,4R)-4-Amino-2-phenylpiperidine-1-carbonyl)-7-azaspiro[4.5]decan-10-yl)methyl) pyrimidin-4(3H)-one]"
10,10 to 100,"N[C@@H]1CCN(C(=O)N2CCC(Cn3ccncc3=O)C3(CCCC3)C2)[C@H](c2ccccc2)C1 (stereo partly drawn) [Example 31, 1-((7-((2S,4R)-4-Amino-2-phenylpiperidine-1-carbonyl)-7-azaspiro[4.5]decan-10-yl)methyl)pyrazin-2(1H)-one]"
11,10 to 100,"Cc1cc(=O)n(CC2CCN(C(=O)N3CC[C@@H](N)C[C@H]3c3ccccc3)CC23CCCC3)cn1 (stereo partly drawn) [Example 32, 3-((7-((2S,4R)-4-Amino-2-phenylpiperidine-1-carbonyl)-7-azaspiro[4.5]decan-10-yl)methyl)-6-methylpyrimidin-4(3H)-one]"
12,10 to 100,"N[C@@H]1CCN(C(=O)N2CCC(Cn3ccc4ccncc4c3=O)C3(CCCC3)C2)[C@H](c2ccccc2)C1 (stereo partly drawn) [Example 33, 2-((7-((2S,4R)-4-Amino-2-phenylpiperidine-1-carbonyl)-7-azaspiro[4.5]decan-10-yl)methyl)-2,7-naphthyridin-1(2H)-one]"
13,10 to 100,"N[C@@H]1CCN(C(=O)N2CCC(Cn3cnc(C(F)(F)F)cc3=O)C3(CCCC3)C2)[C@H](c2ccccc2)C1 (stereo partly drawn) [Example 34, 3-((7-((2S,4R)-4-Amino-2-phenylpiperidine-1-carbonyl)-7-azaspiro[4.5]decan-10-yl)methyl)-6-(trifluoromethyl) pyrimidin-4(3H)-one]"
14,< 10,"N[C@@H]1CCN(C(=O)N2CCC(Cn3cnc4c(cnn4C4CC4)c3=O)C3(CCCC3)C2)[C@H](c2ccccc2)C1 (stereo partly drawn) [Example 35, 5-((7-((2S,4R)-4-Amino-2-phenylpiperidine-1-carbonyl)-7-azaspiro[4.5]decan-10-yl)methyl)-1-cyclopropyl-1,5-dihydro-4H-pyrazolo[3,4-d] pyrimidin-4-one]"
15,< 10,"CC1(c2cc(=O)n(CC3CCN(C(=O)N4CC[C@@H](N)C[C@H]4c4ccccc4)CC34CCCC4)cn2)CC1 (stereo partly drawn) [Example 36, 3-((7-((2S,4R)-4-Amino-2-phenylpiperidine-1-carbonyl)-7-azaspiro[4.5]decan-10-yl)methyl)-6-(1-methylcyclopropyl) pyrimidin-4(3H)-one]"
16,< 10,"N[C@@H]1CCN(C(=O)N2CCC(Cn3cnc4cc(F)c(F)cc4c3=O)C3(CCCC3)C2)[C@H](c2ccccc2)C1 (stereo partly drawn) [Example 37, 3-((7-((2S,4R)-4-Amino-2-phenylpiperidine-1-carbonyl)-7-azaspiro[4.5]decan-10-yl)methyl)-6,7-difluoroquinazolin-4(3H)-one]"
17,< 10,"N[C@@H]1CCN(C(=O)N2CCC(Cn3ccc(C(F)F)cc3=O)C3(CCCC3)C2)[C@H](c2ccccc2)C1 (stereo partly drawn) [Example 38, 1-((7-((2S,4R)-4-Amino-2-phenylpiperidine-1-carbonyl)-7-azaspiro[4.5]decan-10-yl)methyl)-4-(difluoromethyl) pyridin-2(1H)-one]"
18,10 to 100,"Cc1ccn(CC2CCN(C(=O)N3CC[C@@H](N)C[C@H]3c3ccccc3)CC23CCCC3)c(=O)c1 (stereo partly drawn) [Example 39, 1-((7-((2S,4R)-4-Amino-2-phenylpiperidine-1-carbonyl)-7-azaspiro[4.5]decan-10-yl)methyl)-4-methylpyridin-2(1H)-one]"
19,< 10,"CSc1ncc2c(=O)n(CC3CCN(C(=O)N4CC[C@@H](N)C[C@H]4c4ccccc4)CC34CCCC4)ccc2n1 (stereo partly drawn) [Example 40, 6-((7-((2S,4R)-4-Amino-2-phenylpiperidine-1-carbonyl)-7-azaspiro[4.5]decan-10-yl)methyl)-2-(methylthio)pyrido [4,3-d]pyrimidin-5(6H)-one]"
20,10 to 100,"N[C@@H]1CCN(C(=O)N2CCC(CN3CCOCC3=O)C3(CCCC3)C2)[C@H](c2ccccc2)C1 (stereo partly drawn) [Example 41, 4-((7-((2S,4R)-4-Amino-2-phenylpiperidine-1-carbonyl)-7-azaspiro[4.5]decan-10-yl)methyl) morpholin-3-one]"
21,10 to 100,"N[C@@H]1CCN(C(=O)N2CCC(CN3Cc4nccn4CC3=O)C3(CCCC3)C2)[C@H](c2ccccc2)C1 (stereo partly drawn) [Example 42, 7-((7-((2S,4R)-4-Amino-2-phenylpiperidine-1-carbonyl)-7-azaspiro[4.5]decan-10-yl)methyl)-7,8-dihydroimidazo[1,2-a]pyrazin-6(5H)-one]"
22,10 to 100,"N[C@@H]1CCN(C(=O)N2CCC(Cn3ccc(C(F)(F)F)cc3=O)C3(CCCC3)C2)[C@H](c2ccccc2)C1 (stereo partly drawn) [Example 43, 1-((7-((2S,4R)-4-Amino-2-phenylpiperidine-1-carbonyl)-7-azaspiro[4.5]decan-10-yl)methyl)-4-(trifluoromethyl) pyridin-2(1H)-one]"
